Reference: the supplement of paper PMC6335503

Assays:
Test in all cases: cell viability, percent of DMSO control (CellTiter-Glo); higher = more viable cells
Conditions in all cases: 72 h
[1] = system: DFTD cell line T1 (06/2887)
Protocol: (§1)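 Eight-point dose titration of 41 screen hits in triplicate wells on four Tasmanian devil DFTD tumour cell lines (T1-T4) and devil fibroblasts, 384-well plates. Viability was read by CellTiter-Glo (ATP) after 72 h at 37 °C. Percent of control per plate: DMSO wells = 100%, positive-control wells = 0%.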

[2] = system: DFTD cell line T2 (05/2569)
Protocol: as §1

[3] = system: DFTD cell line T3 (06/0368)
Protocol: as §1

[4] = system: DFTD cell line T4 (07/0192)
Protocol: as §1

O=C(/C=C/c1cccc(S(=O)(=O)Nc2ccccc2)c1)NO [RLM 2-89]
cell viability [%]
Conditions	0.000617 µM	0.00185 µM	0.00556 µM	0.0167 µM	0.05 µM	0.15 µM	0.45 µM	1.35 µM
[1]	130	115	116	113	114	52.6	20.5	17.4
[2]	110	96.3	118	106	125	82.3	28.8	20.7
[3]	120	103	116	121	128	77.7	32.4	28.9
[4]	121	109	87.9	125	123	83.5	38.1	19.1

Cc1sc2c(c1C)C(c1ccc(Cl)cc1)=N[C@@H](CC(=O)Nc1ccc(O)cc1)c1nnc(C)n1-2 [OTX015]
cell viability [%]
Conditions	0.0123 µM	0.037 µM	0.111111111 µM	0.333333 µM	1 µM	3 µM	9 µM	27 µM
[1]	103	100	74.2	59.1	31.2	36	30.2	36.9
[2]	105	128	97.9	104	70.1	44.1	36.1	45.3
[3]	104	120	84.2	79.8	57.3	50.5	46.8	54.8
[4]	93.3	85.1	69.9	72.7	51.1	55.9	47.1	56.2

CC(C)(C)P(=NC(=S)NCCCO)(N1CCCCCC1)N1CCCCCC1 [T0503-0280]
cell viability [%]
Conditions	0.00617 µM	0.0185 µM	0.0556 µM	0.166667 µM	0.5 µM	1.5 µM	4.5 µM	13.5 µM
[1]	94.1	106	125	116	96.1	50.7	24.5	19.9
[2]	107	87.6	127	115	92.6	68.7	14.8	27.7
[3]	106	83.3	134	118	99.4	66	17.6	16.1
[4]	118	85.2	129	105	112	38.2	11.4	30.9

CCOc1cc2ncc(C#N)c(Nc3ccc(F)c(Cl)c3)c2cc1NC(=O)/C=C/CN(C)C [Pelitinib (EKB-569)]
cell viability [%]
Conditions	0.00617 µM	0.0185 µM	0.0556 µM	0.166667 µM	0.5 µM	1.5 µM	4.5 µM	13.5 µM
[1]	82.1	115	93.5	76.8	22	30.3	34.1	-2.36
[2]	79.7	121	111	98.2	42.1	42.4	33.2	8.16
[3]	81.3	125	103	76.4	58.9	39.5	33.4	36.2
[4]	83	113	97.4	77.8	53.1	18.3	19.6	22.1

Cn1cnc2c(F)c(Nc3ccc(Br)cc3Cl)c(C(=O)NOCCO)cc21.O=S(=O)(O)O [Selumetinib (AZD6244)]
cell viability [%]
Conditions	0.00617 µM	0.0185 µM	0.0556 µM	0.166667 µM	0.5 µM	1.5 µM	4.5 µM	13.5 µM
[1]	104	100	104	57	41	35.4	29.1	33.4
[2]	98.8	102	108	63	51.7	39.3	35.4	35.8
[3]	102	112	99.1	75.3	63.7	56.9	42.5	50.7
[4]	89	105	88	62.8	56.2	46	35	31.1

CS(=O)(=O)CCNCc1ccc(-c2ccc3ncnc(Nc4ccc(OCc5cccc(F)c5)c(Cl)c4)c3c2)o1 [Lapatinib]
cell viability [%]
Conditions	0.0123 µM	0.037 µM	0.111111111 µM	0.333333 µM	1 µM	3 µM	9 µM	27 µM
[1]	87.5	112	87.1	42.6	30.1	28.2	21.2	12.5
[2]	78.4	133	100	68.6	40.4	44.6	21.6	8.25
[3]	80.9	110	84.9	70.4	42.1	44.9	31.7	5.72
[4]	81.5	113	84.5	53	32	29.4	20.7	16.9

COc1cc2ncnc(Nc3ccc(F)c(Cl)c3)c2cc1NC(=O)/C=C/CN1CCCCC1
cell viability [%]
Conditions	0.00617 µM	0.0185 µM	0.0556 µM	0.166667 µM	0.5 µM	1.5 µM	4.5 µM	13.5 µM
[1]	97.4	108	94.3	58.2	36.2	27.5	30.8	19.8
[2]	112	95.2	106	90.6	81.1	51	49.8	50.5
[3]	108	97.5	91.6	77.7	39.7	38.3	27.9	-10.9
[4]	107	96.2	88	77.2	25	26.5	11.7	-11.1
